Measurements reported in ChEMBL document CHEMBL1149368, “1-Aminomethylbenzocycloalkanes: conformationally restricted hallucinogenic phenethylamine analogues as functionally selective 5-HT2A receptor agonists” (J Med Chem, 2006).

Assays:
[1] = molecular target: T1, 5-hydroxytryptamine receptor 2A (Rattus norvegicus, UniProt P14842)
Description: Displacement of (+/-)-[125I]DOI from rat cloned 5HT2A receptor

[2] = molecular target: 5-hydroxytryptamine receptor 2A (Homo sapiens, UniProt P28223)
Description: Displacement of (+/-)-[125I]DOI from human cloned 5HT2A receptor

[3] = molecular target: T1, 5-hydroxytryptamine receptor 2A; assay: Activity at rat 5HT2A receptor expressed in NIH3T3 cells assessed as stimulation of phospholipase C-mediated IP production; assay type: functional, cell-based

Sequence of 5-hydroxytryptamine receptor 2A (Homo sapiens, UniProt P28223) (P28223 whole entry): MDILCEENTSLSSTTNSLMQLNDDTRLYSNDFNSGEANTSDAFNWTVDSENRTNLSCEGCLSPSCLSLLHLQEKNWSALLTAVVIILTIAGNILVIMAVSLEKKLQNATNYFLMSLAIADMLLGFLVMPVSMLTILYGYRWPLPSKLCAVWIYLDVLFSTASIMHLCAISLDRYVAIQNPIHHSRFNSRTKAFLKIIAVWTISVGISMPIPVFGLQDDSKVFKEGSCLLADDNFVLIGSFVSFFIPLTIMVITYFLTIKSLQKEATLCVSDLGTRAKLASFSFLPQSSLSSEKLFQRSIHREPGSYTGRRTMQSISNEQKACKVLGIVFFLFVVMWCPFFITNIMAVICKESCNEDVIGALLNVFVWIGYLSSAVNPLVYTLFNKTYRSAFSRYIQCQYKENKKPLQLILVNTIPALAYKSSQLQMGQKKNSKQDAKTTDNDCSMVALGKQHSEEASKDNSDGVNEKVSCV
T1 sequence (P14842 whole entry): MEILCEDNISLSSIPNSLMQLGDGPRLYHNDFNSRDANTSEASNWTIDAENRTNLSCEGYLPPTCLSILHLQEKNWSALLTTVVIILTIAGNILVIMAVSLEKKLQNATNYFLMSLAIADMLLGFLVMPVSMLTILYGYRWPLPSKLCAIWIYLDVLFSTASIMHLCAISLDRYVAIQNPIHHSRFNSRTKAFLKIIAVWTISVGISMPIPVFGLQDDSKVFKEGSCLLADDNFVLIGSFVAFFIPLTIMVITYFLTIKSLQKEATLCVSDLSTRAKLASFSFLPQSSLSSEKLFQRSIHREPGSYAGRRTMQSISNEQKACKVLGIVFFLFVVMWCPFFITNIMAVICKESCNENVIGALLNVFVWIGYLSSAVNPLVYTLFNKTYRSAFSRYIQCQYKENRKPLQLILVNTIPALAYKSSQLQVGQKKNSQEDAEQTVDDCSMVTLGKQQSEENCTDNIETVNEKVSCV

## COc1cc(CCN)c(OC)cc1Br
[1]
  Ki: 0.88 nM
[2]
  Ki: 0.66 nM
[3]
  EC50: 27 nM

## COc1cc(Br)c2c3c1[C@@H](CN)CCC[C@@H]3CO2 (racemic)
[1]
  Ki: 74 nM
[2]
  Ki: 170 nM

## COc1cc(Br)c2c3c1[C@H](CN)CCC[C@@H]3CO2 (racemic)
[1]
  Ki: 170 nM
[2]
  Ki: 200 nM

## COc1cc(Br)c(OC)c2c1C(CN)CC2 (racemic)
[1]
  Ki: 47 nM
[2]
  Ki: 53 nM
